Test results from patent publication US20080275085A1, “Piperidine derivative and use thereof” (priority 2007, published 2008).
Where a name gives a salt, the structure may show the parent alone.

Target: T1, substance P receptor (Homo sapiens, UniProt P25103)
T1 construct: The receptor was prepared from human lymphoblast cells (IM-9); endogenous in cells; host or cells: IM-9 human lymphoblast cells (membrane fraction, 100,000xG precipitate)
Assay: Radioligand receptor binding inhibitory activity (125I-BHSP binding, receptor from IM-9 cells)
Settings: receptor from human lymphoblast cells (IM-9); radioligand 125I-BHSP; 25° C., 30 min
Protocol: Radioligand Receptor Binding Inhibitory Activity (Binding Inhibitory Activity Using Receptor from Human Lymphoblast Cells (IM-9))
The method of M. A. Cascieri et al., “Molecular Pharmacology, vol. 42, p. 458 (1992)” was modified and used. The receptor was prepared from human lymphoblast cells (IM-9).
IM-9 cells (2×10^5 cells/mL) were inoculated and incubated for 3 days, which was then subjected to centrifugation for 10 min. at 500×G to give cell pellets. The obtained pellets were washed with PBS (GIBCO), disrupted in buffer A (50 mM tris.hydrochloric acid buffer (pH 7.4) containing 120 mM sodium chloride, 5 mM potassium chloride, 2 μg/mL chymostatin, 40 μg/mL bacitracin, 40 μg/mL APMSF, 1 mM ethylenediamine tetra acetic acid) using a polytron.homogenizer [manufactured by Kinematika, Germany], and centrifuged at 100,000×G for 40 min. The precipitated fraction was suspended in buffer B (50 mM Tris-HCl (pH 7.4), 0.02% bovine serum albumin, 2 μg/mL chymostatin, 40 μg/mL bacitracin, 40 μg/mL APMSF, 3 mM MgCl2), which was then cryopreserved (−80° C.) as a receptor specimen.
Buffer B (50 μL) was added to a 96 well microassay plate (CORNING). Thereto was added 50 μL of membrane preparation suspended in buffer B at 250 μg/mL. A measurement buffer (50 μL) containing 2% dimethyl sulfoxide was added to examine total binding; 4 μM unlabeled SP (50 μL) diluted with a measurement buffer containing 2% dimethyl sulfoxide was added to examine non-specific binding; and 50 μL of a test compound (containing 2% dimethyl sulfoxide) diluted with a measurement buffer was added to examine binding inhibitory activity of the test compound. In addition, […] ^125I-BHSP solution (50 μL) was added to each well.
After reaction at 25° C. for 30 min, the cells were rapidly filtered through a GF/C filter plate (PerkinElmer) using a cell harvester (manufactured by PerkinElmer) to quench the reaction, and washed 10 times with 250 μL of 50 mM tris-HCl buffer (pH 7.4) containing 0.02% bovine serum albumin. The GF/C filter plate was dried, MicroScinti 0 (20 μL) was added, and the radioactivity was measured with TopCount (manufactured by PerkinElmer). The GF/C filter plate was immersed in 0.3% polyethylene imine for one day before use.
Specific binding is a value obtained by subtracting nonspecific binding from total binding. The binding inhibitory activity of a test compound is shown by a ratio of a value obtained by subtracting a measurement value with addition of a test compound from the total binding, relative to specific binding.
The antagonistic activity of the compounds obtained in the Examples was determined as a concentration necessary for causing 50% inhibition (IC50 value) under the above-described conditions, and the results shown in Table 34 were obtained.
The radio ligand means substance P labeled with [^125I].

T1 sequence (P25103 whole entry): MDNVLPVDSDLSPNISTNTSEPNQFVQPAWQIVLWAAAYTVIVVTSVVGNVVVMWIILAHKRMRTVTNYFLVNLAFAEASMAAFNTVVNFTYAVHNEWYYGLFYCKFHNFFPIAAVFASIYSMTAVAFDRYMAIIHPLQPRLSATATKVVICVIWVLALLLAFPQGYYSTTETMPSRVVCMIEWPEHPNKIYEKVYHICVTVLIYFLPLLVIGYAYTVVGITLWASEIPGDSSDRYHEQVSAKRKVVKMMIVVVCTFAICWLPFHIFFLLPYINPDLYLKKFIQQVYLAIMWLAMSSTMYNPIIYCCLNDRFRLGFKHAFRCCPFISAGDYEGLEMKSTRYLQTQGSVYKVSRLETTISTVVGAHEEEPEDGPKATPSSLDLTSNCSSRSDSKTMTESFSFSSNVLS

Row | SMILES | IC50
1 | Cc1ccccc1[C@H]1CN(C(=O)C2CCN(C(=O)CO)CC2)CC[C@@H]1C(=O)N(C)Cc1cc(C(F)(F)F)cc(C(F)(F)F)c1 [Example 18, (3S,4S)—N-[3,5-bis(trifluoromethyl)benzyl]-1-[[1-glycoloylpiperidin-4-yl]carbonyl]-N-methyl-3-(2-methylphenyl)piperidine-4-carboxamide] | 0.024 nM
2 | Cc1cc(F)ccc1[C@H]1CN(C(=O)C(N)=O)CC[C@@H]1C(=O)N(C)[C@@H](C)c1cc(C(F)(F)F)cc(C(F)(F)F)c1 [Example 178, (3S,4S)-1-[amino(oxo)acetyl]-N-{(1S)-1-[3,5-bis(trifluoromethyl)phenyl]ethyl}-3-(4-fluoro-2-methylphenyl)-N-methylpiperidine-4-carboxamide] | 0.017 nM
3 | Cc1cc(F)ccc1[C@H]1CN(C(=O)CCS(C)(=O)=O)CC[C@@H]1C(=O)N(C)[C@@H](C)c1cc(C(F)(F)F)cc(C(F)(F)F)c1 [Example 160, (3S,4S)—N-{(1S)-1-[3,5-bis(trifluoromethyl)phenyl]ethyl}-3-(4-fluoro-2-methylphenyl)-N-methyl-1-[3-(methylsulfonyl)propanoyl]piperidine-4-carboxamide] | 0.032 nM
4 | Cc1cc(F)ccc1[C@@H]1CN(CC(=O)N2CCC(O)CC2)CC[C@H]1C(=O)N(C)Cc1cc(C(F)(F)F)cc(C(F)(F)F)c1 (relative stereo) [Example 104, (3R*,4R*)—N-[3,5-bis(trifluoromethyl)benzyl]-3-(4-fluoro-2-methylphenyl)-1-[2-(4-hydroxypiperidin-1-yl)-2-oxoethyl]-N-methylpiperidine-4-carboxamide monohydrochloride] | 0.042 nM
5 | Cc1cc(F)ccc1[C@H]1CN(C(=O)CN2C(=O)OC(C)(C)C2=O)CC[C@@H]1C(=O)N(C)Cc1cc(C(F)(F)F)cc(C(F)(F)F)c1 [Example 148, (3S,4S)—N-[3,5-bis(trifluoromethyl)benzyl]-1-[(5,5-dimethyl-2,4-dioxo-1,3-oxazolidin-3-yl)acetyl]-3-(4-fluoro-2-methylphenyl)-N-methylpiperidine-4-carboxamide] | 0.06 nM
6 | Cc1ccccc1[C@H]1CN(C(=O)CN2C(=O)OC(C)(C)C2=O)CC[C@@H]1C(=O)N(C)[C@@H](C)c1cc(C(F)(F)F)cc(C(F)(F)F)c1 [Example 30, (3S,4S)—N-{(1S)-1-[3,5-bis(trifluoromethyl)phenyl]ethyl}-1-[(5,5-dimethyl-2,4-dioxo-1,3-oxazolidin-3-yl)acetyl]-N-methyl-3-(2-methylphenyl)piperidine-4-carboxamide] | 0.057 nM
7 | Cc1cc(F)ccc1[C@H]1CN(C(=O)C2CCN(C(=O)[C@@H](C)O)CC2)CC[C@@H]1C(=O)N(C)Cc1cc(C(F)(F)F)cc(C(F)(F)F)c1 [Example 151, (3S,4S)—N-[3,5-bis(trifluoromethyl)benzyl]-3-(4-fluoro-2-methylphenyl)-1-({1-[(2R)-2-hydroxypropanoyl]piperidin-4-yl}carbonyl)-N-methylpiperidine-4-carboxamide] | 0.02 nM
8 | Cc1cc(F)ccc1[C@@H]1CN(C2CCN(C(N)=O)CC2)CC[C@H]1C(=O)N(C)Cc1cc(C(F)(F)F)cc(C(F)(F)F)c1 (relative stereo) [Example 109, (3R*,4R*)—N^4-[3,5-bis(trifluoromethyl)benzyl]-3-(4-fluoro-2-methylphenyl)-N^4-methyl-1,4′-bipiperidine-1′,4-dicarboxamide monohydrochloride] | 0.023 nM
9 | CC(=O)Nc1ccc(N2CC[C@@H](C(=O)N(C)Cc3cc(C(F)(F)F)cc(C(F)(F)F)c3)[C@H](c3ccc(F)cc3C)C2)nc1 (relative stereo) [Example 129, (3R*,4R*)-1-[5-(acetylamino)pyridin-2-yl]-N-[3,5-bis(trifluoromethyl)benzyl]-3-(4-fluoro-2-methylphenyl)-N-methylpiperidine-4-carboxamide monohydrochloride] | 0.095 nM
10 | Cc1cc(F)ccc1[C@@H]1CN(CCC(C)(C)O)CC[C@H]1C(=O)N(C)Cc1cc(C(F)(F)F)cc(C(F)(F)F)c1 (relative stereo) [Example 123, (3R*,4R*)—N-[3,5-bis(trifluoromethyl)benzyl]-3-(4-fluoro-2-methylphenyl)-1-(3-hydroxy-3-methylbutyl)-N-methylpiperidine-4-carboxamide monohydrochloride] | 0.025 nM
11 | Cc1cc(F)ccc1[C@H]1CN(C(=O)C2CCN(C(=O)CO)CC2)CC[C@@H]1C(=O)N(C)Cc1cc(C(F)(F)F)cc(C(F)(F)F)c1 [Example 149, (3S,4S)—N-[3,5-bis(trifluoromethyl)benzyl]-3-(4-fluoro-2-methylphenyl)-1-[(1-glycoloylpiperidin-4-yl)carbonyl]-N-methylpiperidine-4-carboxamide] | 0.015 nM
12 | Cc1cc(F)ccc1[C@H]1CN(CCS(C)(=O)=O)CC[C@@H]1C(=O)N(C)[C@@H](C)c1cc(C(F)(F)F)cc(C(F)(F)F)c1 [Example 180, (3S,4S)—N-{(1S)-1-[3,5-bis(trifluoromethyl)phenyl]ethyl}-3-(4-fluoro-2-methylphenyl)-N-methyl-1-[2-(methylsulfonyl)ethyl]piperidine-4-carboxamide monohydrochloride] | 0.023 nM
13 | Cc1cc(F)ccc1[C@@H]1CN(C2CCN(C(=O)C(N)=O)CC2)CC[C@H]1C(=O)N(C)Cc1cc(C(F)(F)F)cc(C(F)(F)F)c1 (relative stereo) [Example 108, (3R*,4R*)-1′-[amino(oxo)acetyl]-N-[3,5-bis(trifluoromethyl)benzyl]-3-(4-fluoro-2-methylphenyl)-N-methyl-1,4′-bipiperidine-4-carboxamide monohydrochloride] | 0.026 nM
14 | Cc1cc(F)ccc1[C@H]1CN(C(=O)C2CCN(C(=O)CO)CC2)CC[C@@H]1C(=O)N(C)[C@@H](C)c1cc(C(F)(F)F)cc(C(F)(F)F)c1 [Example 152, (3S,4S)—N-{(1S)-1-[3,5-bis(trifluoromethyl)phenyl]ethyl}-3-(4-fluoro-2-methylphenyl)-1-[(1-glycoloylpiperidin-4-yl)carbonyl]-N-methylpiperidine-4-carboxamide] | 0.015 nM
15 | Cc1ccsc1C1CN(C(=O)C2CCN(C(=O)CO)CC2)CCC1C(=O)N(C)[C@@H](C)c1cc(C(F)(F)F)cc(C(F)(F)F)c1 (single isomer, unassigned; more polar) [Example 176, (3R*,4S*)—N-{(1S)-1-[3,5-bis(trifluoromethyl)phenyl]ethyl}-1-[(1-glycoloylpiperidin-4-yl)carbonyl]-N-methyl-3-(3-methyl-2-thienyl)piperidine-4-carboxamide (more polar)] | 0.051 nM
16 | Cc1cc(F)ccc1[C@@H]1CN(C(C)(C)C(N)=O)CC[C@H]1C(=O)N(C)Cc1cc(C(F)(F)F)cc(C(F)(F)F)c1 (relative stereo) [Example 113, (3R*,4R*)-1-(2-amino-1,1-dimethyl-2-oxoethyl)-N-[3,5-bis(trifluoromethyl)benzyl]-3-(4-fluoro-2-methylphenyl)-N-methylpiperidine-4-carboxamide monohydrochloride] | 0.061 nM
17 | Cc1cc(F)ccc1[C@@H]1CN(S(=O)(=O)CCN2CCOCC2)CC[C@H]1C(=O)N(C)Cc1cc(C(F)(F)F)cc(C(F)(F)F)c1 (relative stereo) [Example 139, (3R*,4R*)—N-[3,5-bis(trifluoromethyl)benzyl]-3-(4-fluoro-2-methylphenyl)-N-methyl-1-[(2-morpholin-4-ylethyl)sulfonyl]piperidine-4-carboxamide monohydrochloride] | 0.037 nM
18 | Cc1ccccc1[C@H]1CN(C(=O)C2CCN(C(=O)[C@H](C)O)CC2)CC[C@@H]1C(=O)N(C)Cc1cc(C(F)(F)F)cc(C(F)(F)F)c1 [Example 28, (3S,4S)—N-(3,5-bis(trifluoromethyl)benzyl]-1-({1-[(2S)-2-hydroxypropanoyl]piperidin-4-yl}carbonyl)-N-methyl-3-(2-methylphenyl)piperidine-4-carboxamide] | 0.022 nM
19 | Cc1cc(F)ccc1[C@@H]1CN(CC(=O)NC2CC2)CC[C@H]1C(=O)N(C)Cc1cc(C(F)(F)F)cc(C(F)(F)F)c1 (relative stereo) [Example 103, (3R*,4R*)—N-[3,5-bis(trifluoromethyl)benzyl]-1-[2-(cyclopropylamino)-2-oxoethyl]-3-(4-fluoro-2-methylphenyl)-N-methylpiperidine-4-carboxamide monohydrochloride] | 0.096 nM
